From US5439940A, “Benz[e]indene derivatives” (priority 1992, dated 1995)
Read-outs that look alike come from different tables or passages of the source.

Tests used:
[1] = Acute toxicity on mice (oral LD50); details: mouse, in vivo, 7 days observation, maximal dose 1000 mg/kg
Experimental: Mice belonging to the NMRI strain (body weight 20-25 g, both male and female) were used, 6 to 10 animals for each dose. The test compound was administered orally in a volume of 20 ml/kg. The applied maximal dose was 1000 mg/kg. […] The mice were kept in a plastic cage at room temperature. The animals got tap water and standard mouse fodder ad libitum. The toxicity data were determined by the aid of the method of Litchfield and Wilcoxon [Litchfield, J. T., Wilcoxon, F. W.: J. Pharmacol. Exp. Ther., 96, 99 (1949)].

[2] = tested on: shocks tolerated; assay: Anxiolytic effect (Vogel et al.); assay type: in vivo, rat (male Wistar); details: ip, 2 h; rat, intraperitoneal, two hours before testing; read-out: Anxiolytic effect MED
Experimental: The anxiolytic effect was tested by using the method of Vogel et al. Male Wistar rats of 160-180 g bodyweight were kept free of food and drinking water for 24 and 48 hours, respectively. Test and carrier substances were administered intraperitoneally two hours before testing. Animals within the experimental chamber were provided with drinking water through an inserted tube. After the animals' each twenty lapping for water the device emitted a 2 mA intensity electric shock through the drinking tube. During 5 minutes the shocks tolerated by the animals in order to quench their thirst were counted. The effect of treatment was expressed as the % increase of the tolerated shocks. The minimum effective dose (MED) was determined for each test compound [Voqel, J. R., Beer, B., Clody, D. E.: Psychopharmacologia (Berl.) 21, 1 (1971)].

[3] = tested on: catalepsy; assay: Catalepsy; assay type: in vivo, rat (Wistar); details: rat; for Catalepsy MED: scored from 60 minutes after dosing, four hours
Experimental: The extrapyramidal syndrome, the most important side effect limiting the application of the neuroleptic drugs in man, can be produced in experimental animals in the form of catalepsy. Our experiments in 150-160 g Wistar rats were performed according to Morpurgo. The catalepsy, appearing 60 minutes after dosing, was scored as follows. Both forelegs of each animal were put for 10 seconds onto a rubber stopper of 3 cm height, then for additional 10 seconds onto a same stopper of 9 cm height. […] The procedure was repeated in each 30 minutes during four hours, obtaining scores proportional to the degree of the catalepsy. Results were used to calculate the minimum effective dose [MED, the lowest dose resulting statistically significant alteration, c.f.: Morpurgo, C.: Arch. Int.

[4] = tested on: learned conditioned avoidance reflex; assay: Antipsychotic effect: inhibition of conditioned avoidance reflex (shuttle box); assay type: in vivo, rat (male Wistar); details: 1 h, read-out: Conditioned reflex ID50
Experimental: The antipsychotic (neuroleptic) effect was measured by the inhibition of the learned conditioned avoidance reflex. The male Wistar rats used for the study were of 120-150 g bodyweight at the commencement of learning. […] In response to a suitable warning stimulus, in order to avoid the punishing (unconditioned) stimulus, animals within the box passed through the gate from one part over the other. The warning, i.e. conditioned stimulus (CS), a white light (1 Hz) blinking for 15 seconds, was applied at the place of the actual animal existence. The unconditioned stimulus (US), in form of 0.6 mA intensity electric shock, was randomly applied to the paw during the last 5 seconds of the conditioned stimulus. Animal's movement during the CS and US from one part of the box over the other, was defined as avoidance and escape responses, respectively. Both responses ceased the actual stimulus and stopped the trial. The time elapsed until the next trial (intertrial interval, ITI) was 15 seconds. While one experiment was carried out daily, an experiment consisted of 80 trials. Learning efficiency was expressed as percentage of the successful to the total avoidances. […] Dosing was carried out once a week, one hour before the measurement in the shuttle box.

[5] = tested on: hexobarbital narcosis; assay: Hexobarbital narcosis potentiating effect on mice; assay type: in vivo, mouse; details: oral; for ED50: Mus musculus, 1 hour before hexobarbital 40 mg/kg i.v., sleeping time >2.5 times control, read-out: ED50 hexobarbital narcosis potentiation
Experimental: The hexobarbital narcosis potentiating effect was examined on mice. Groups consisting of 6 animals were used for each dose. The animals were treated orally with the test compound, whereby sleeping was induced 1 hour later by administering a 40 mg/kg i.v. dose of hexobarbital both to the test and control groups. […] ED50 values were calculated from the thus-transformed data [Kaergaard Nielsen C. et al., Arch. Int. Pharmacodyn. 2, 170 (1967)].

[6] = tested on: nicotine spasm; assay: Anticonvulsive activity: inhibition of nicotine spasm and lethality; assay type: in vivo; details: Mus musculus, 1 h; mice, oral, one hour before nicotine 1.4 mg/kg i.v.
Experimental: The inhibition of nicotine spasm and lethality was examined on mice according to the method of Stone. One hour after the oral treatment a dosage of 1.4 mg/kg of nicotine is injected intravenously, and the spasm developed as well as the lethality within 1 hour were recorded at both the test and control groups. [Stone, C. C., Mecklenburg, K. L., Torchiana, M. L.: Arch. Int. Pharmacodyn., 117, 419 (1958)].
(§1) The ED50 values were determined according to the method of Litchfield and Wilcoxon.

[7] = tested on: pentetrazole spasm; assay: Anticonvulsive activity: pentetrazole spasm inhibiting test; assay type: in vivo, mouse (NMRI); details: Mus musculus; mice, oral, 1 hour before pentetrazole 125 mg/kg i.p.; read-out: Inhibition of pentetrazole spasm, ED50
Experimental: The pentetrazole spasm inhibiting test was performed according to the modified method of Benziger and Hans. Groups of mice consisting of 6 animals each, belonging to the NMRI strain (body weight: 20-25 g), were treated orally with the compound to be tested and the vehicle without active agent, respectively. I hour after the treatment a dosage of 125 mg/kg of pentetrazole was administered to each animal, intraperitoneally, and the tonic spasm of the lower limb extensor was recorded [Benziger, R., Hans, D.: Arch. Int. Pharmacodyn., 167, 245 (1967)].
as §1

[8] = tested on: nervus ischiadicus; assay: Local analgesic effect (Truant d'Amato); assay type: in vivo; details: 0.2 ml injected around nervus ischiadicus
Experimental: The test was carried out according to the method of Truant d'Amato. 0.2 ml of test material was injected around the nervus ischiadicus in the middle of femur with a needle of 1 cm length. The criterion of analgesic effect was the lack of the motoric control of foot muscles. The duration of effect was registered and the 50 percentile effective concentration (EC50) was calculated on the basis of the dose-effect curve. Lidocain was used as reference substance Truant d'Amato, A. P., Wiedling, S.: Acta Chir. Scand., 116, 351 (1958)].

[9] = tested on: experimental coronary insufficiency; assay: Antianginal effect (glanduitrine-induced coronary insufficiency, Nieschultz); assay type: in vivo, rat (male); details: rat, glanduitrine 4 NE/kg i.v., T-wave; for inhibition in vivo at 2 mg/kg: Rat2, iv, read-out: Inhibition in a dose of 2 mg/kg; for ED50: iv
Experimental: The test was carried out on male rats weighing 180-220 g. The animals were narcotized with the aid of chloralose-urethane. ECG was registered by means of needle electrodes in standard II output. Antianginal effect was tested according to the method of Nieschultz. Experimental coronary insufficiency was induced by administering glanduitrine (4 NE/kg i.v.).

[10] = tested on: spontaneous motility; assay: Spontaneous motility inhibiting activity (Dews equipment); assay type: in vivo; details: Mus musculus, 0.5 h; oral, beam interruptions within 30 minutes; read-out: Motility inhibiting activity ID50
Experimental: The spontaneous motility inhibiting activity was examined according to the method of Borsy et al. Groups consisting of 3 mice each were treated orally with different doses of the compounds to be tested, then the test animals were placed in a Dews equipment. In this equipment the number of interruptions of infrared beam within 30 minutes was counted. […] [Borsy, J., Csanyi, E., Lazar, I.: Arch. Int.. Pharmacodyn. 124, 1 (1960)].

[11] = tested on: acetic acid writhing reactions; assay: Analgesic effect (acetic acid writhing, Newbould); assay type: in vivo, mouse (NMRI); details: Mus musculus, 1 h; mice, 0.75% acetic acid one hour after treatment; read-out: Analgesic effect ID50
Experimental: The characteristic "writhing reactions" were counted for a period of 5 minutes, starting from the fifth minute after challenge. […] Each group of animals consisted of at least 10 mice. […]

`CNC1=Nc2ccc(Cl)cc2C(c2ccccc2)=[N+]([O-])C1` [Chlordiazepoxide, reference compound] gave an LD50 at 168 h [1] of 650 mg/kg and a minimal effective dose [2] of 2.5 mg/kg.
For `CN(C)CCCN1c2ccccc2Sc2ccc(Cl)cc21` [Chlorpromazine, reference compound], the “Therapeutic index (Catalepsy MED / Conditioned Reflex ID50)” value [3] was 1.5, the “Catalepsy MED” value [3] was 20 mg/kg and the ED50 ([4]; Rattus norvegicus) was 13.2 mg/kg. It also gave an LD50 at 168 h [1] of 315 mg/kg.
With `CN(C)CCON=C1CCc2c1ccc1ccccc21` [Example 1, 3-[2-(N,N-Dimethylamino)-ethoxyimino]-2,3-dihydro-1H-benz[e]indene] the “effect observed in the given dose, hexobarbital narcosis potentiation” value (“effect observed in the given dose” below) ([5]; dose 200 mg/kg) was 100% and the LD50 at 168 h [1] was 820 mg/kg.
In the case of `CCN(CC)CCON=C1CCc2c1ccc1ccccc21` [Example 3, 3-[2-(N,N-Diethylamino)-ethoxyimino]-2,3-dihydro-1H-benz[e]indene], the LD50 at 168 h [1] is reported as 640 mg/kg, the ED50 [6] is reported as 29 mg/kg and the ED50 [7] is reported as 96 mg/kg.
In the case of `CC(C)N(CCON=C1CCc2c1ccc1ccccc21)C(C)C` [Example 4, 3-[2-(N-1-Methylethyl-2-propylamino)-ethoxyimino]-2,3-dihydro-1H-benz[e]indene], the “Local analgesic effect EC50” value [8] is reported as 0.18%, the LD50 at 168 h [1] is reported as 600 mg/kg and the inhibition in vivo at 2 mg/kg [9] is reported as 100%. The ED50 [9] was 0.19 mg/kg and the ED50 [6] was 4 mg/kg.
In the case of `c1ccc2c3c(ccc2c1)C(=NOCCN1CCCC1)CC3` [Example 7, 3-[2-(N-Pyrpolidinyl)-ethoxyimino]-2,3-dihydro-1H-benz[e]indene], the “Local analgesic effect EC50” value [8] is reported as 0.20% and the LD50 at 168 h [1] is reported as 700 mg/kg.
In the case of `c1ccc2c3c(ccc2c1)C(=NOCCN1CCCCC1)CC3` [Example 8, 3-[2-(N-Piperidinyl)-ethoxyimlno]-2,3-dihydro-1H-benz[e]indene], the “effect observed in the given dose” value ([5]; dose 100 mg/kg) is reported as 67%, the LD50 at 168 h [1] is reported as over 1000 mg/kg and the inhibition in vivo at 2 mg/kg [9] is reported as 56%.
For `c1ccc2c3c(ccc2c1)C(=NOCCCN1CCCCC1)CC3` [Example 9, 3-[3-(N-Piperidinyl)-propoxyimino]-2,3-dihydro-1H-benz[e]indene], the “Local analgesic effect EC50” value [8] was 0.20% and the LD50 at 168 h [1] was 320 mg/kg.
Compound `c1ccc2c3c(ccc2c1)C(=NOCCN1CCOCC1)CC3` [Example 11, 3-[2-(N-Morpholinoethoxyimino)]-2,3-dihydro-1H-benz[e]indene] has an LD50 at 168 h [1] of over 1000 mg/kg, an inhibition in vivo at 2 mg/kg [9] of 54% and an ED50 [7] of 84 mg/kg.
For `Clc1cccc(N2CCN(CCCON=C3CCc4c3ccc3ccccc43)CC2)c1` [Example 12, 3-{3-[4-(3-Chlorophenyl)-1-piperazinyl]-propoxyimino}-2,3-dihydro-1H-benz[e]indene], the “effect observed in the given dose” value ([5]; dose 200 mg/kg) was 83%, the ED50 [10] was about 100 mg/kg and the LD50 at 168 h [1] was over 1000 mg/kg. It also gave an inhibition in vivo at 2 mg/kg [9] of 56% and an ED50 [7] of 30 mg/kg.
With `OCCN1CCN(CC(O)CON=C2CCc3c2ccc2ccccc32)CC1` (stereo not drawn) [Example 18, 3-{3-[4-(2-Hydroxyethyl)-1-piperazinyl]-2-hydroxypropoxyimino}-2,3-dihydro-1H-benz[e]indene] the LD50 at 168 h [1] was over 1000 mg/kg and the inhibition in vivo at 2 mg/kg [9] was 59%.
`COc1ccccc1N1CCN(CC(O)CON=C2CCc3c2ccc2ccccc32)CC1` (stereo not drawn) [Example 19, 3-{3-[4-(2-Methoxyphenyl)-1-piperazinyl]-2-hydroxypropoxyimino}-2,3-dihydro-1H-benz[e]indene] gave an ED50 [5] of 67 mg/kg, an ED50 [10] of 43 mg/kg and an LD50 at 168 h [1] of over 1000 mg/kg. It also gave an ED50 [11] of 65 mg/kg.
`O=C(NC1CCCCC1)ON=C1CCc2c1ccc1ccccc21` [Example 22, 3-(O-Cyclohexylcarbamoyl)-oxime-2,3-dihydro-1H-benz[e]indene] gave an LD50 at 168 h [1] of over 1000 mg/kg and an inhibition in vivo at 2 mg/kg [9] of 59%.
With `CCN(CC)CC(=O)Nc1c(C)cccc1C` [Lidocain, reference compound] the “Local analgesic effect EC50” value [8] was 0.19%.
`CCCC(C)(COC(N)=O)COC(N)=O` [Meprobamate, reference compound] gave an ED50 [5] of 260 mg/kg, an ED50 [10] of 232 mg/kg and an LD50 at 168 h [1] of 1350 mg/kg. For the same compound, the minimal effective dose [2] was 25 mg/kg.
`CC(Cc1ccccc1)NCCC(c1ccccc1)c1ccccc1` (stereo not drawn) [Prenylamine, reference compound] showed an inhibition in vivo at 2 mg/kg [9] of 41% and an ED50 [9] of 6.6 mg/kg.
For `CSc1ccc2c(c1)N(CCC1CCCCN1C)c1ccccc1S2` (stereo not drawn) [Thioridazine], the “Therapeutic index (Catalepsy MED / Conditioned Reflex ID50)” value [3] was 0.7, the “Catalepsy MED” value [3] was 80 mg/kg and the ED50 ([4]; rat, dosing one hour before measurement) was 108 mg/kg.
`OC(CCN1CCCCC1)(c1ccccc1)C1CCCCC1` (stereo not drawn) [Trihexyphenidyl, reference compound] showed an ED50 [6] of 20 mg/kg.
`CN1C(=O)OC(C)(C)C1=O` [Trimethadione, reference compound] showed an ED50 [7] of 400 mg/kg.
